Among the data in US6255100A, “Cyclosporin fermentation process” (Novartis AG, priority 1990, dated 2001) are Cytotoxicity values, retold here.

SMILES strings stand for the structures. Non-standard residues stand in square brackets, D forms with d. Residues, ends and D or L forms follow the SMILES beside them. MeBmt = C/C=C/C[C@@H](C)[C@@H](O)[C@H](NC)C(=O)O; NMeL = CN[C@@H](CC(C)C)C(=O)O; NMeV = CN[C@H](C(=O)O)C(C)C; dNMeA = CN[C@H](C)C(=O)O

The first series deals with MT4 cells. Briefly: Cytotoxicity in MT4-cells (MTT).
Details: not given
The procedure:
To evaluate the anti-HIV potential in additional cell lines and particularly in a monocytic cell line (U937), cellular toxicity of the test compound to these cell lines is first assessed. Jurkat and U937 cell suspensions are adjusted to 1×10^5 cells/ml and incubated in the presence of various concentrations of test compound. After 48 hours the amounts of cells per ml are compared by staining with MTT. Cytoxicity in MT4 cells may be measured in the same way.
The significance of these numbers and the appropriate methods are discussed supra.
In turn, `CCCC[C@@H](C)[C@@H](O)[C@H]1C(=O)N[C@@H](CC)C(=O)N(C)CC(=O)N(C)[C@@H](CC(C)(C)O)C(=O)N[C@@H](C(C)C)C(=O)N(C)[C@@H](CC(C)C)C(=O)N[C@@H](C)C(=O)N[C@H](C)C(=O)N(C)[C@@H](CC(C)C)C(=O)N(C)[C@@H](CC(C)C)C(=O)N(C)[C@@H](C(C)C)C(=O)N1C` [Compound a), [dihydro-MeBmt]^1-[γ-hydroxy-MeLeu]^4 -Ciclosporin] had a Cytotoxicity of 16.3 µg/mL. On the same count and under the same terms, as for `C/C=C/C[C@@H](C)[C@@H](O)[C@H]1C(=O)N[C@@H](CC)C(=O)N(C)CC(=O)N(C)[C@@H](CC(C)(C)O)C(=O)N[C@@H](C(C)C)C(=O)N(C)[C@@H](CC(C)C)C(=O)N[C@@H](C)C(=O)N[C@H](C)C(=O)N(C)[C@@H](CC(C)C)C(=O)N(C)[C@@H](CC(C)C)C(=O)N(C)[C@@H](C(C)C)C(=O)N1C` [Compound e), [γ-hydroxy-MeLeu]^4 -Ciclosporin], the figure is 15.5 µg/mL; as for `C/C=C/C[C@@H](C)[C@@H](O)[C@H]1C(=O)N[C@@H](CCC)C(=O)N(C)CC(=O)N(C)[C@@H](CC(C)(C)O)C(=O)N[C@@H](C(C)C)C(=O)N(C)[C@@H](CC(C)C)C(=O)N[C@@H](C)C(=O)N[C@H](C)C(=O)N(C)[C@@H](CC(C)C)C(=O)N(C)[C@@H](CC(C)C)C(=O)N(C)[C@@H](C(C)C)C(=O)N1C` [Compound f), [Nva]^2-[γ-hydroxy-MeLeu]^4 -Ciclosporin], 14.0 µg/mL. Same read-out and setting: the figure for `C/C=C/C[C@@H](C)[C@@H](O)[C@H]1C(=O)N[C@@H](CC)C(=O)N(C)CC(=O)N(C)[C@@H](CC(C)C)C(=O)N(C)[C@@H](C(C)C)C(=O)N(C)[C@@H](CC(C)C)C(=O)N[C@@H](C)C(=O)N[C@H](C)C(=O)N(C)[C@@H](CC(C)C)C(=O)N(C)[C@@H](CC(C)C)C(=O)N(C)[C@@H](C(C)C)C(=O)N1C` [Compound h), [MeVal]^5 -Ciclosporin] is 4.4 µg/mL. Still for that read-out and setting: the figure for `C/C=C/C[C@@H](C)[C@@H](O)[C@H]1C(=O)N[C@@H]([C@@H](C)OC)C(=O)N(C)[C@H](C)C(=O)N(C)[C@@H](CC(C)C)C(=O)N(C)[C@@H](C(C)C)C(=O)N(C)[C@@H](CC(C)C)C(=O)N[C@@H](C)C(=O)N[C@H](C)C(=O)N(C)[C@@H](CC(C)C)C(=O)N(C)[C@@H](CC(C)C)C(=O)N(C)[C@@H](C(C)C)C(=O)N1C` [Compound i), [MeOThr]^2-[(D)MeAla]^3-[MeVal]^5 -Ciclosporin] (cyclo(A[dA][NMeL][NMeL][NMeV][MeBmt]T(Me)[dNMeA][NMeL][NMeV][NMeL])) is more than 10 µg/mL. `CC[C@@H]1NC(=O)[C@H]([C@H](O)[C@H](C)C/C=C/CO)N(C)C(=O)[C@H](C(C)C)N(C)C(=O)[C@H](CC(C)C)N(C)C(=O)[C@H](CC(C)C)N(C)C(=O)[C@@H](C)NC(=O)[C@H](C)NC(=O)[C@H](CC(C)C)N(C)C(=O)[C@H](C(C)C)NC(=O)[C@H](CC(C)C)N(C)C(=O)CN(C)C1=O` [Compound j), [8'-hydroxy-MeBmt]^1 -Ciclosporin] displayed a Cytotoxicity of 10.6 µg/mL. The compound `C/C=C/C[C@@H](C)[C@@H](O)[C@H]1C(=O)N[C@@H](CC)C(=O)N(C)CC(=O)N(C)[C@@H](CC(C)C)C(=O)N[C@@H](C(C)C)C(=O)N(C)[C@@H](C)C(=O)N[C@@H](C)C(=O)N[C@H](C)C(=O)N(C)[C@@H](CC(C)C)C(=O)N(C)[C@@H](CC(C)C)C(=O)N(C)[C@@H](C(C)C)C(=O)N1C` [Compound k), [MeAla]^6 -Ciclosporin] registered a Cytotoxicity of 5.2 µg/mL. The same measure, in the same setting: the figure for `C/C=C/C[C@@H](C)[C@@H](O)[C@H]1C(=O)N[C@@H](CC)C(=O)N(C)CC(=O)N(C)[C@@H](CC(C)C)C(=O)N[C@@H](C(C)C)C(=O)N(C)[C@@H](CC(C)C)C(=O)N[C@@H](C)C(=O)N[C@H](C)C(=O)N(C)[C@@H](CC(C)(C)O)C(=O)N(C)[C@@H](CC(C)C)C(=O)N(C)[C@@H](C(C)C)C(=O)N1C` [l), [γ-hydroxy-MeLeu]^9 -Ciclosporin] is more than 10 µg/mL.

The same series, now with this note: MT4-cells, MTT staining.
`C/C=C/C[C@@H](C)[C@@H](O)[C@H]1C(=O)N[C@@H](CC)C(=O)N(C)CC(=O)N(C)[C@@H](C(C)C)C(=O)N[C@@H](C(C)C)C(=O)N(C)[C@@H](CC(C)C)C(=O)N[C@@H](C)C(=O)N[C@H](C)C(=O)N(C)[C@@H](CC(C)C)C(=O)N(C)[C@@H](CC(C)C)C(=O)N(C)[C@@H](C(C)C)C(=O)N1C` [Compound b), [MeVal]^4 -Ciclosporin] yielded a Cytotoxicity of 5.4 µg/mL. Turning to `C/C=C/C[C@@H](C)[C@@H](O)[C@H]1C(=O)N[C@@H](CC)C(=O)N(C)CC(=O)N(C)[C@@H]([C@@H](C)CC)C(=O)N[C@@H](C(C)C)C(=O)N(C)[C@@H](CC(C)C)C(=O)N[C@@H](C)C(=O)N[C@H](C)C(=O)N(C)[C@@H](CC(C)C)C(=O)N(C)[C@@H](CC(C)C)C(=O)N(C)[C@@H](C(C)C)C(=O)N1C` [Compound c), [MeIle]^4 -Ciclosporin], the Cytotoxicity was 4.5 µg/mL.
